These results are taken from patent publication US7329761B2, “Substituted imides” (Celgene Corporation, priority 1994, dated 2008).

In general, melting point refers to the temperature of the solid-liquid transition.

SMILES strings stand for the structures.

In turn, `CCCC(CCC)C(c1ccc(OC)c(OC)c1)N1C(=O)c2ccccc2C1=O` (stereo not shown) [Example 7, 1-Phthalimido-1 (3′,4′-dimethoxyphenyl)-2-propylpentane] returned a melting point of 100 to 101 °C.

Regarding `COc1ccc(CN2C(=O)c3ccccc3C2=O)cc1OC` [Example 4, 1-Phthalimido-1-(3′,4′-dimethoxyphenyl)methane], the melting point is 160 to 161 °C. Then `CCC(c1ccc(OC)cc1)N1C(=O)c2ccccc2C1=O` (stereo not shown) [Example 3, 1-Phthalimido-1-(4-methoxyphenyl)propane], with 85 to 86 °C. Molecule `COc1ccc(C(C)N2C(=O)c3ccccc3C2=O)cc1OC` (stereo not shown) [Example 2, 1-Phthalimido-1-(3′,4′-dimethoxyphenyl) Ethane] yielded a melting point of 124 to 125 °C.
